Measured values reported in US20250339444A1, “Methods and Compositions for Treating Fatty Liver and Viral Infections” (The Board of Trustees of the Leland Stanford Junior …, priority 2022, published 2025).

Tests used:
RSV-luc5 virus = assay: RSV-luc5 luciferase replication assay in HeLa cells; conditions: human respiratory syncytial virus, 72 h, read-out: EC50, RSV replication
HBV = assay: Reduction of HBV surface antigen in cells infected with HBV; assay type: cell-based; conditions: Hepatitis B virus; cells infected with HBV (FIG. 4: engineered human liver tissue)
Protocol: We then discovered that A27 had antiviral activity against HBV, showing reduction in HBV surface antigen in cells infected with HBV with an EC50 of ˜1 μM (FIG. 4).

[1] = tested on: TMPRSS2-ACE2-Huh7.5 cells; assay: Toxicity in the SARS-CoV-2 cell culture assay; conditions: SARS-CoV-2 assay
PR8 virus (ATCC-VR-1469) = assay: Influenza PR8 plaque assay in MDCK cells; assay type: cell-based
[2] = tested on: hepatic steatosis in C57/BL6 mice on high fat diet; assay: Hepatic steatosis in C57/BL6 mice on high fat diet, liver ultrasound; assay type: in vivo; conditions: 100 mg/kg/day
SARS-CoV-2 [3] = assay: microbe, parasite or virus in culture; assay type: cell-based; conditions: Severe acute respiratory syndrome coronavirus 2, read-out: EC50, SARS-CoV-2 genome replication
SARS-CoV-2 [4] = assay: Combination of A27 with other antivirals against SARS-CoV-2; assay type: cell-based
Description: Thus, A27 can be combined with nirmatrelvir or paxlovid.

apolipoprotein B (apoB) = apolipoprotein B (apoB) (Homo sapiens, UniProt P04114); assay: Binding to apolipoprotein B
Chain of apolipoprotein B (apoB) (P04114 28-4563, species assumed): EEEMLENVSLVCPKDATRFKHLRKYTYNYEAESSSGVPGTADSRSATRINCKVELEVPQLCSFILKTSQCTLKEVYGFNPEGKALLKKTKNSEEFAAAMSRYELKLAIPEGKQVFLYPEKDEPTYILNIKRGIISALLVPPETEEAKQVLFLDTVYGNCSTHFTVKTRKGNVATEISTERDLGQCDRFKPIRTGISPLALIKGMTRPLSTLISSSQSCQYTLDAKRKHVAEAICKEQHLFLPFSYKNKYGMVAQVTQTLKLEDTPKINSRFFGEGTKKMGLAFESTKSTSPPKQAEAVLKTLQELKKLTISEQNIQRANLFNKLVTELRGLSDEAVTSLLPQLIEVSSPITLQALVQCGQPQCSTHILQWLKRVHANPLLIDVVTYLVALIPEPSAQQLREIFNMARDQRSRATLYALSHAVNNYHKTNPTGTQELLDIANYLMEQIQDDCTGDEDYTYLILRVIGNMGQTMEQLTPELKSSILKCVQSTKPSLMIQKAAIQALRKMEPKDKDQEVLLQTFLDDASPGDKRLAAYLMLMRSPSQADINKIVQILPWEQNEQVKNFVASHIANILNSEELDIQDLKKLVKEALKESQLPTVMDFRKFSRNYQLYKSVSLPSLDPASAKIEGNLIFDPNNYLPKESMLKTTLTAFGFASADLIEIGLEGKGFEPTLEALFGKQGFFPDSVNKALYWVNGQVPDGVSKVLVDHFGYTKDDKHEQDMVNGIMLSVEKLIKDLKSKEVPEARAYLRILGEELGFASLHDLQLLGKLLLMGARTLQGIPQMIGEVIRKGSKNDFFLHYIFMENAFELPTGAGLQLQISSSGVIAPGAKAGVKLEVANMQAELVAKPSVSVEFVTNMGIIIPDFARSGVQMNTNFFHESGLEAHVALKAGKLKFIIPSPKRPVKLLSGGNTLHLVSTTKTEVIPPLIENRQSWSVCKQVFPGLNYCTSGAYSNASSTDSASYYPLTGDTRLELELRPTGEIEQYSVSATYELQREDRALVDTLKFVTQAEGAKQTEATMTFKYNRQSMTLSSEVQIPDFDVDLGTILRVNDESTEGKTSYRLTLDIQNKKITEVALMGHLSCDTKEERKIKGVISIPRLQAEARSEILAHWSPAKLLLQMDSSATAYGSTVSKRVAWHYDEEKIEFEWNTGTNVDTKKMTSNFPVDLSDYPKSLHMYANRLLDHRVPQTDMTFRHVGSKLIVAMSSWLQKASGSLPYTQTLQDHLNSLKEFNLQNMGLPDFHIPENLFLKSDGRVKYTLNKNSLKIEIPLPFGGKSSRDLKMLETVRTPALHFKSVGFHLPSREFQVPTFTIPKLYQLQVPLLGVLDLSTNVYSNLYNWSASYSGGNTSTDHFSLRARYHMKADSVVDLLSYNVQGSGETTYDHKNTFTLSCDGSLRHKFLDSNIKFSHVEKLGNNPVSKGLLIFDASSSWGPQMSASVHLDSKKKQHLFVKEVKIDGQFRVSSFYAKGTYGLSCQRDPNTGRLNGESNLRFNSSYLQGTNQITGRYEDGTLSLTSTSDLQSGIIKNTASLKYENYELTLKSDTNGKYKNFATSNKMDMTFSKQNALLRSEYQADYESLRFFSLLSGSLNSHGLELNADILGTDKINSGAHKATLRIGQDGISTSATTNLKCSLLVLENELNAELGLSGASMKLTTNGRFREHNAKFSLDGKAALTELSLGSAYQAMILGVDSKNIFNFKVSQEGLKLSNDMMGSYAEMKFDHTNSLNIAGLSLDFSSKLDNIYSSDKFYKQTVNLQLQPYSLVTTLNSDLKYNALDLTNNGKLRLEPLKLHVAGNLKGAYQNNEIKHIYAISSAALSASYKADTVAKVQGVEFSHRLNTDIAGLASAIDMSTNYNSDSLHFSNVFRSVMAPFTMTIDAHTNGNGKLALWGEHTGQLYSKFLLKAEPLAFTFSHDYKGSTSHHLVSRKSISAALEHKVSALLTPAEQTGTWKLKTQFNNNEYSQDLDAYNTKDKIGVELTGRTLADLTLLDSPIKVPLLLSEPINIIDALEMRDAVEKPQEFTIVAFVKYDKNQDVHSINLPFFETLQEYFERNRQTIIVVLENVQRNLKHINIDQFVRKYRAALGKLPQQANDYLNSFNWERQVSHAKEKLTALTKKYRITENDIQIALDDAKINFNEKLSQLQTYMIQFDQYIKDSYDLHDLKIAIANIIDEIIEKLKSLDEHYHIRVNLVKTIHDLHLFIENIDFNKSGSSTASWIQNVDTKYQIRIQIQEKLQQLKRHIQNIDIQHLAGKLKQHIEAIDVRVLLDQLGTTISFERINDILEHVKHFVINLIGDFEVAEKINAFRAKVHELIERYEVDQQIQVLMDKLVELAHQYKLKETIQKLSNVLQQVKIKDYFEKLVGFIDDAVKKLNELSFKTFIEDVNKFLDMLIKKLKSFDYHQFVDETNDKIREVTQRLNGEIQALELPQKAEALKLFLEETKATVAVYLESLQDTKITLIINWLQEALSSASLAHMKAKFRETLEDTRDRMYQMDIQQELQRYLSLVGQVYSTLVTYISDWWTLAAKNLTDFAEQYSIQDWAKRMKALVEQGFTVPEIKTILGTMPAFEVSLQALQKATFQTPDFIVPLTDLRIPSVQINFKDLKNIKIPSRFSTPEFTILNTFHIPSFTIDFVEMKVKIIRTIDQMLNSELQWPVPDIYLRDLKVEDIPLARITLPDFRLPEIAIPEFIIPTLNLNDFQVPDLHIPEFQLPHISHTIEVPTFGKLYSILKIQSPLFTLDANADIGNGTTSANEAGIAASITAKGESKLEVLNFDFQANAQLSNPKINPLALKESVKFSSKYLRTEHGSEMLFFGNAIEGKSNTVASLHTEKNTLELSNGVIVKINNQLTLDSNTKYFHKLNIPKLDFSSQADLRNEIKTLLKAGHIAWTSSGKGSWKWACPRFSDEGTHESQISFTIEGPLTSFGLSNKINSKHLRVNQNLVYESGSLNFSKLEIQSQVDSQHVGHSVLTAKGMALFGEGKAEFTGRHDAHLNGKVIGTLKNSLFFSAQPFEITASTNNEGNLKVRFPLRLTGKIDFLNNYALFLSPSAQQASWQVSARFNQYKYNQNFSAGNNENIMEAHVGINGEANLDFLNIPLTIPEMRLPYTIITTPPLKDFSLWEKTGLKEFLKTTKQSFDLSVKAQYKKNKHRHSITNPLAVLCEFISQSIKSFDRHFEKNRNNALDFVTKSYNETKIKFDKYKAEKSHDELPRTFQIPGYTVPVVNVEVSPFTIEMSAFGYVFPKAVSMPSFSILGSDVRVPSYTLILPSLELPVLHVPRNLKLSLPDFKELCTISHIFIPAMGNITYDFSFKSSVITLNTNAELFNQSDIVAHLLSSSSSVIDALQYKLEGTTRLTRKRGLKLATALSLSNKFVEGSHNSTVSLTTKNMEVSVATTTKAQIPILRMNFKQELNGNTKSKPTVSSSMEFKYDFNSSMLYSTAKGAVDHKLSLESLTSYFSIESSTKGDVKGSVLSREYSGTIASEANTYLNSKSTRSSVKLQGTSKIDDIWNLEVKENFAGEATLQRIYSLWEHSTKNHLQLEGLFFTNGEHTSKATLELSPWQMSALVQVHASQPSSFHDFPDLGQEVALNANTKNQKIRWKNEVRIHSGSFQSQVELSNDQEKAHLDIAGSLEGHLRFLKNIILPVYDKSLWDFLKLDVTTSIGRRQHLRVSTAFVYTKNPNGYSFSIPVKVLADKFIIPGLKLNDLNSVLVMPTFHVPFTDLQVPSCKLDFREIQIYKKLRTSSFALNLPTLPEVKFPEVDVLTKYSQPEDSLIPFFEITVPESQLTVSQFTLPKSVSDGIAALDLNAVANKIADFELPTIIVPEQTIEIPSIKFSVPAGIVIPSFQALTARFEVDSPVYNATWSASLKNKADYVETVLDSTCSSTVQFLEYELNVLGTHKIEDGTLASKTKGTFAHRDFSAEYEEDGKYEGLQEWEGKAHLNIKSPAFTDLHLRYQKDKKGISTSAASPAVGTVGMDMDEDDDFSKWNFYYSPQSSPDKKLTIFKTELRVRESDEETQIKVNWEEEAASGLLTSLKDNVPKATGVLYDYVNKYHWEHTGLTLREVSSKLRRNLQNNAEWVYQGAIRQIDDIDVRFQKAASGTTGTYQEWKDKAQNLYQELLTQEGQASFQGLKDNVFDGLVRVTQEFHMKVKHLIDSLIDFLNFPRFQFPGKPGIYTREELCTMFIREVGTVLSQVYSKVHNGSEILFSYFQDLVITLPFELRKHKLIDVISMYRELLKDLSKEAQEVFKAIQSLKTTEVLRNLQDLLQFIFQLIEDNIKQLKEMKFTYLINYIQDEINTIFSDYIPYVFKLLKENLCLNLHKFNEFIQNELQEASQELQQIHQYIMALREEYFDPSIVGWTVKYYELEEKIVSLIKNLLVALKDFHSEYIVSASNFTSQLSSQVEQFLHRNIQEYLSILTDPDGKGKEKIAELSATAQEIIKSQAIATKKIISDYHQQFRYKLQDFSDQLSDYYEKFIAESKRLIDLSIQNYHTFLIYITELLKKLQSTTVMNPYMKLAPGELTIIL

HepG2 cells = assay: Steatosis in HepG2 cells cultured in fatty medium, Nile Red staining; assay type: cell-based
Protocol: Briefly, fatty medium was prepared by 1:1 mixture of oleic acid and palmitic acid (Sigma Aldrich) with 10% FFA-free bovine serum albumin (BSA) solution (Sigma Aldrich) in PBS. Essentially, 100 mM of oleic acid and palmitic acid was prepared in 99% methanol. Palmitic acid was prepared by shaking at 500 rpm 50° C. for 20 mins. 10 mM of oleic acid and palmitic acid was incubated with 10% BSA in PBS at 50° C. for 30 mins. A final concentration of 100 uM FFA mixture was made in the final cell culture medium. Cells were incubated in fatty medium for 4 days to induce fatty liver. Cells were then treated with A27 at various concentrations for 3 days in the presence of the fatty medium. To determine the degree of steatosis, cells were stained with 1 mg/ml Nile Red solution (Sigma Aldrich) in cell culture medium for 15 mins at 37° C. and florescence signal was measured (see FIG. 1).

[5] = tested on: Venezuelan equine encephalitis virus (VEEV) TC83 strain; assay: microbe, parasite or virus in culture; assay type: cell-based; conditions: U-87 MG, read-out: EC50, VEEV genome replication

Q: What does the source list for `Cn1nc(C(=O)NC2CCN(CCN3CCCC3)CC2)c2ccc(N3CCCCCC3)nc21` [Compound A27]?
A: EC50 (RSV-luc5 virus): 1100 nM; EC50 (HBV): ~1000 nM; toxicity [1]: without any evidence of toxicity; plaque size compared to oseltamivir treated wells (PR8 virus (ATCC-VR-1469)): smaller-sized plaques; tolerability in mice ([2]; 4 weeks): tolerated A27 well; hepatic steatosis measured by liver ultrasound ([2]; high fat diet for 4 weeks, versus vehicle): reduces hepatic steatosis; EC50 (SARS-CoV-2 [3]): 803 nM; combination effect with polymerase inhibitor nucleoside analog (SARS-CoV-2 [4]; with a polymerase inhibitor nucleoside analog (e.g. EIDD2801)): additive; combination effect with protease inhibitors (SARS-CoV-2 [4]; with protease inhibitors against SARS-CoV-2 (e.g. PF-07321332)): synergistic; binding to apolipoprotein B (apoB) (apolipoprotein B (apoB)): can bind; lipid accumulation (Nile Red fluorescence) (HepG2 cells; HepG2 cells, A27 at various concentrations for 3 days in fatty medium): dose-dependent decrease in lipid accumulation; EC50 (HepG2 cells; Homo sapiens, HepG2, 72 h, read-out: half effective concentration (EC50), inhibition of formation of steatosis): ~500 nM; toxicity (U87-MG cells): without any evidence of toxicity; EC50 [5]: 7900 nM
